The values that follow come from ChEMBL document CHEMBL1159329, “Microbial transformations of isosteviol” (2002).

This assay relates to Rattus norvegicus. Put plainly: Antihypertensive activity in deoxy-corticosterone acetate-induced Sprague-Dawley rat assessed as reduction of blood pressure at 4.8 mg/kg, iv. In kind it is functional.

The structures appear in SMILES notation.

For `C[C@@]12CC[C@]3(O)[C@@](CC[C@@H]4[C@](C)(C(=O)O)CCC[C@]43C)(CC1=O)C2`, the Activity turned out to be 7 mmHg.

As to `C[C@@]12CC[C@@H]3[C@@](CC[C@H]4[C@@]3(C)CCC[C@@]4(C)C(=O)O)(CC1=O)C2` [ISOSTEVIOL], the Activity came out at 12 mmHg.
